# Laboratory results: US20260262643A1, “HERBICIDAL BENZOXAZINES” (FMC CORPORATION, priority 2022, published 2026)
# Assays:
# barnyardgrass [1] = assay: Test C preemergence; type: in vivo, Echinochloa crusgalli
# Method in brief: (§1)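 Visual injury score, 0–100 (100 = complete control), taken 10 days after treatment relative to untreated controls. Pre: directed spray onto soil over sown seeds. Post: foliar spray at one- to two-leaf stage, 2–10 cm. Solvent/surfactant formulation; loam–sand soil; greenhouse.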
# blackgrass [2] = assay: Test C preemergence; type: in vivo, Alopecurus myosuroides
# Method in brief: as §1
# corn [3] = assay: Test C preemergence; type: in vivo, Zea mays
# Method in brief: as §1
# foxtail, giant [4] = assay: Test C preemergence; type: in vivo, Setaria faberi
# Description: (§2) Seeds of plant species selected from barnyardgrass (Echinochloa crusgalli), blackgrass (Alopecurus myosuroides), corn (Zea mays), foxtail, giant (giant foxtail, Setaria faberi), green foxtail (Setaria viridis), goosegrass (Eleusine indica), kochia (Bassia scoparia), oat, wild (wild oat, Avena fatua), pigweed, palmer (palmer amaranth, palmer pigweed, Amaranthus palmeri), Pigweed, Redroot (redroot pigweed, Amaranthus retroflexus), ragweed (common ragweed, Ambrosia artemisiifolia), ryegrass, Italian ([…] ryegrass, Lolium multiflorum), soybean (Glycine max), and wheat (Triticum aestivum) were planted into a blend of loam soil and sand and treated preemergence with a directed soil spray using test chemicals formulated in a non-phytotoxic solvent mixture which included a surfactant. At the same time, plants selected from these crops and weed species and also galium (catchweed bedstraw, Galium aparine) and horseweed (Erigeron canadensis) were planted in pots containing the same blend of loam soil and sand and treated with postemergence applications of test chemicals formulated in the same manner. Plants ranged in height from 2 to 10 cm and were in the one- to two-leaf stage for the postemergence treatment. Treated plants and untreated controls were maintained in a greenhouse for 10 days, after which time all treated plants were compared to untreated controls and visually evaluated for injury. Plant response ratings, summarized in Table C, are based on a 0 to 100 scale where 0 is no effect and 100 is complete control. A dash (-) response means no test result.
# kochia [5] = assay: Test C preemergence; type: in vivo, Bassia scoparia
# Method in brief: as §1
# oat, wild [6] = assay: Test C preemergence; type: in vivo, Avena fatua
# Method in brief: as §1
# pigweed, palmer [7] = assay: Test C preemergence; type: in vivo, Amaranthus palmeri
# Method in brief: as §1
# ragweed [8] = assay: Test C preemergence; type: in vivo, Ambrosia artemisiifolia
# Method in brief: as §1
# ryegrass, Italian [9] = assay: Test C preemergence; type: in vivo, Lolium multiflorum
# Method in brief: as §1
# soybean [10] = assay: Test C preemergence; type: in vivo, Glycine max
# Method in brief: as §1
# wheat [11] = assay: Test C preemergence; type: in vivo, Triticum aestivum
# Method in brief: as §1
# barnyardgrass [12] = assay: Test C postemergence; type: in vivo, Echinochloa crusgalli; conditions: 10 days, 0 to 100 scale (0 no effect, 100 complete control)
# Method in brief: as §1
# blackgrass [13] = assay: Test C postemergence; type: in vivo, Alopecurus myosuroides; conditions: 10 days, 0 to 100 scale (0 no effect, 100 complete control)
# Method in brief: as §1
# corn [14] = assay: Test C postemergence; type: in vivo, Zea mays; conditions: 10 days, 0 to 100 scale (0 no effect, 100 complete control)
# Method in brief: as §1
# foxtail, giant [15] = assay: Test C postemergence; type: in vivo, Setaria faberi; conditions: 10 days, 0 to 100 scale (0 no effect, 100 complete control)
# Description: as §2
# kochia [16] = assay: Test C postemergence; type: in vivo, Bassia scoparia; conditions: 10 days, 0 to 100 scale (0 no effect, 100 complete control)
# Method in brief: as §1
# oat, wild [17] = assay: Test C postemergence; type: in vivo, Avena fatua; conditions: 10 days, 0 to 100 scale (0 no effect, 100 complete control)
# Method in brief: as §1
# pigweed, palmer [18] = assay: Test C postemergence; type: in vivo, Amaranthus palmeri; conditions: 10 days, 0 to 100 scale (0 no effect, 100 complete control)
# Method in brief: as §1
# ragweed [19] = assay: Test C postemergence; type: in vivo, Ambrosia artemisiifolia; conditions: 10 days, 0 to 100 scale (0 no effect, 100 complete control)
# Method in brief: as §1
# ryegrass, Italian [20] = assay: Test C postemergence; type: in vivo, Lolium multiflorum; conditions: 10 days, 0 to 100 scale (0 no effect, 100 complete control)
# Method in brief: as §1
# soybean [21] = assay: Test C postemergence; type: in vivo, Glycine max; conditions: 10 days, 0 to 100 scale (0 no effect, 100 complete control)
# Method in brief: as §1
# wheat [22] = assay: Test C postemergence; type: in vivo, Triticum aestivum; conditions: 10 days, 0 to 100 scale (0 no effect, 100 complete control)
# Method in brief: as §1
# galium = assay: Test C postemergence; type: in vivo, Galium aparine; conditions: 10 days, 0 to 100 scale (0 no effect, 100 complete control)
# Method in brief: as §1
# horseweed = assay: Test C postemergence; type: in vivo, Erigeron canadensis; conditions: 10 days, 0 to 100 scale (0 no effect, 100 complete control)
# Method in brief: as §1
# barnyardgrass [23] = assay: Test D flooded paddy test; type: in vivo, Echinochloa crus-galli; conditions: 250 g ai/ha, applied to paddy water, visual rating after 13 to 14 days, scale 0 to 100 (0 no effect, 100 complete control)
# Method in brief: (§3)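 Post-flood water application at the 2-leaf stage; 3 cm flood depth kept constant; visual control rating 0–100 after 13–14 days greenhouse growth.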
# ducksalad = assay: Test D flooded paddy test; type: in vivo, Heteranthera limosa; conditions: 250 g ai/ha, applied to paddy water, visual rating after 13 to 14 days, scale 0 to 100 (0 no effect, 100 complete control)
# Method in brief: as §3
# rice = assay: Test D flooded paddy test; type: in vivo, Oryza sativa; conditions: 250 g ai/ha, applied to paddy water, visual rating after 13 to 14 days, scale 0 to 100 (0 no effect, 100 complete control)
# Method in brief: as §3
# sedge, umbrella = assay: Test D flooded paddy test; type: in vivo, Cyperus difformis; conditions: 250 g ai/ha, applied to paddy water, visual rating after 13 to 14 days, scale 0 to 100 (0 no effect, 100 complete control)
# Method in brief: as §3
# [24] = 500 g ai/ha, preemergence, 0 to 100 scale (0 no effect, 100 complete control)
# [25] = Preemergence, 125 g ai/ha, 0 to 100 scale, 0 no effect, 100 complete control
compound,measurement,setting,value
"Cc1cccc2c1OC(C(F)(F)F)CN2C(=O)c1ccnc(-n2cnc(C(C)C)n2)c1 (single isomer, unassigned) [Compound 328]",Barnyardgrass plant response rating,barnyardgrass [1]; [24],100
same,"Plant response rating, Barnyardgrass",barnyardgrass [1]; [25],90
same,Blackgrass plant response rating,blackgrass [2]; [24],80
same,"Plant response rating, Blackgrass",blackgrass [2]; [25],80
same,Corn plant response rating,corn [3]; [24],90
same,"Plant response rating, Corn",corn [3]; [25],30
same,"Foxtail, Giant plant response rating","foxtail, giant [4]; [24]",100
same,"Plant response rating, Foxtail, Giant","foxtail, giant [4]; [25]",100
same,Kochia plant response rating,kochia [5]; [24],70
same,"Plant response rating, Kochia",kochia [5]; [25],0
same,"Oat, Wild plant response rating","oat, wild [6]; [24]",90
same,"Plant response rating, Oat, Wild","oat, wild [6]; [25]",30
same,"Pigweed, Palmer plant response rating","pigweed, palmer [7]; [24]",100
same,"Plant response rating, Pigweed, Palmer","pigweed, palmer [7]; [25]",40
same,Ragweed plant response rating,ragweed [8]; [24],50
same,"Plant response rating, Ragweed",ragweed [8]; [25],0
same,"Ryegrass, Italian plant response rating","ryegrass, Italian [9]; [24]",100
same,"Plant response rating, Ryegrass, Italian","ryegrass, Italian [9]; [25]",90
same,Soybean plant response rating,soybean [10]; [24],100
same,"Plant response rating, Soybean",soybean [10]; [25],100
same,Wheat plant response rating,wheat [11]; [24],90
same,"Plant response rating, Wheat",wheat [11]; [25],20
same,"Plant response rating, Barnyardgrass","barnyardgrass [12]; 500 g ai/ha, postemergence",90
same,"Plant response rating, Barnyardgrass","barnyardgrass [12]; Postemergence, 125 g ai/ha",60
same,"Plant response rating, Blackgrass","blackgrass [13]; 500 g ai/ha, postemergence",80
same,"Plant response rating, Blackgrass","blackgrass [13]; Postemergence, 125 g ai/ha",60
same,"Plant response rating, Corn","corn [14]; 500 g ai/ha, postemergence",70
same,"Plant response rating, Corn","corn [14]; Postemergence, 125 g ai/ha",20
same,"Plant response rating, Foxtail, Giant","foxtail, giant [15]; 500 g ai/ha, postemergence",90
same,"Plant response rating, Foxtail, Giant","foxtail, giant [15]; Postemergence, 125 g ai/ha",90
same,"Plant response rating, Kochia","kochia [16]; 500 g ai/ha, postemergence",80
same,"Plant response rating, Kochia","kochia [16]; Postemergence, 125 g ai/ha",50
same,"Plant response rating, Oat, Wild","oat, wild [17]; 500 g ai/ha, postemergence",40
same,"Plant response rating, Oat, Wild","oat, wild [17]; Postemergence, 125 g ai/ha",20
same,"Plant response rating, Pigweed, Palmer","pigweed, palmer [18]; 500 g ai/ha, postemergence",90
same,"Plant response rating, Pigweed, Palmer","pigweed, palmer [18]; Postemergence, 125 g ai/ha",50
same,"Plant response rating, Ragweed","ragweed [19]; 500 g ai/ha, postemergence",60
same,"Plant response rating, Ragweed","ragweed [19]; Postemergence, 125 g ai/ha",40
same,"Plant response rating, Ryegrass, Italian","ryegrass, Italian [20]; 500 g ai/ha, postemergence",90
same,"Plant response rating, Ryegrass, Italian","ryegrass, Italian [20]; Postemergence, 125 g ai/ha",50
same,"Plant response rating, Soybean","soybean [21]; 500 g ai/ha, postemergence",100
same,"Plant response rating, Soybean","soybean [21]; Postemergence, 125 g ai/ha",100
same,"Plant response rating, Wheat","wheat [22]; 500 g ai/ha, postemergence",30
same,"Plant response rating, Wheat","wheat [22]; Postemergence, 125 g ai/ha",30
same,"Plant response rating, Galium","galium; 500 g ai/ha, postemergence",100
same,"Plant response rating, Galium","galium; Postemergence, 125 g ai/ha",80
same,"Plant response rating, Horseweed","horseweed; 500 g ai/ha, postemergence",60
same,"Plant response rating, Horseweed","horseweed; Postemergence, 125 g ai/ha",0
same,"Plant response rating, Barnyardgrass (Flood)",barnyardgrass [23],15
same,"Plant response rating, Ducksalad (Flood)",ducksalad,30
same,"Plant response rating, Rice (Flood)",rice,0
same,"Plant response rating, Sedge, Umbrella (Flood)","sedge, umbrella",85
